The values that follow are results of earlier work, collected in patent US10561609B2, “Antiviral compositions” (The University of Liverpool, priority 2010, dated 2020).

For the data set the following is noted: according to M. Fardis and R. Oliyai; same value restated in g/L.

Where a name gives a salt, the structure may show the parent alone.

As for `CC(C)OC(=O)OCOP(=O)(CO[C@H](C)Cn1cnc2c(N)ncnc21)OCOC(=O)OC(C)C` [tenofovir disoproxil fumarate], the water solubility is 13.4 mg/mL.
